Assay: Metabolic stability in human liver microsomes
Assay type: in vitro ADME
Settings: for difference in half-life and intrinsic clearance compared with the corresponding non-deuterated methylone hydrochloride: human liver microsomes; for CLint (μL/min/mg protein): human liver microsomes 0.5 mg/mL, 1 μM compound, NADPH, 0-45 min
Method: Pooled liver microsomes are purchased from a reputable commercial supplier. Microsomes are stored at […] prior to use. Microsomes (final protein concentration 0.5 mg/mL), 0.1 M phosphate buffer pH 7.4 and test compound (final substrate concentration 1 μM; final DMSO concentration 0.25%) are preincubated at 37° C. prior to the addition of NADPH (final concentration 1 mM) to initiate the reaction. A minus cofactor control incubation is included for each compound tested where 0.1 M phosphate buffer pH 7.4 is added instead of NADPH (minus NADPH). Two control compounds are included with each species. All incubations are performed singularly for each test compound. Each compound is incubated for 0, 5, 15, 30 and 45 min. The control (minus NADPH) is incubated for 45 min only. The reactions are stopped by transferring incubate into acetonitrile at the appropriate time points, in a 1:3 ratio. The termination plates are centrifuged at 3,000 rpm for 20 min at 4° C. to precipitate the protein.
From a plot of ln peak area ratio (compound peak area/internal standard peak area) against time, the gradient of the line is determined. Subsequently, half-life and intrinsic clearance are calculated using the equations below: Elimination rate constant (k)=(−gradient) Half-life (t½)(min)=0.693/k Intrinsic clearance (CLint)(μL/min/mg protein)=V×0.693/t½ where V=Incubation volume (μL)/Microsomal protein (mg)
Relevant control compounds were assessed, ensuring intrinsic clearance values fall within the specified limits (if available).

| Compound | difference in half-life and intrinsic clearance compared with the corresponding non-deuterated methylone hydrochloride | CLint (μL/min/mg protein) |
| --- | --- | --- |
| Cl.[2H]C1([2H])Oc2ccc(C(=O)C(C)NC)cc2O1 (racemic) [(rac)-Methylone-d2 hydrochloride, 1-(benzo[d][1,3]dioxol-5-yl-2,2-d2)-2-((methyl)amino)propan-1-one HCl] | differences in half-life and intrinsic clearance | – |
| Cl.[2H]C([2H])([2H])NC(C)C(=O)c1ccc2c(c1)OC([2H])([2H])O2 (racemic) [(rac)-Methylone-d5 hydrochloride, 1-(benzo[d][1,3]dioxol-5-yl-2,2-d2)-2-((methyl-d3)amino)propan-1-one HCl] | most significant difference in half-life and intrinsic clearance | – |
| Cl.[2H]C([2H])([2H])N[C@@H](C)C(=O)c1ccc2c(c1)OCO2 [(S)-Methylone-d3 hydrochloride, (S)-1-(benzo[d][1,3]dioxol-5-yl)-2-((methyl-d3)amino)propan-1-one HCl] | differences in half-life and intrinsic clearance | 9.60 |
| Cl.[2H]C([2H])([2H])N[C@@H](C)C(=O)c1ccc2c(c1)OC([2H])([2H])O2 [(S)-Methylone-d5 hydrochloride, (S)-1-(benzo[d][1,3]dioxol-5-yl-2,2-d2)-2-((methyl-d3)amino)propan-1-one hydrochloride] | most significant difference in half-life and intrinsic clearance | 9.07 |
| Cl.[2H]C([2H])([2H])N[C@H](C)C(=O)c1ccc2c(c1)OCO2 [(R)-Methylone-d3 hydrochloride, (R)-1-(benzo[d][1,3]dioxol-5-yl)-2-((methyl-d3)amino)propan-1-one HCl] | differences in half-life and intrinsic clearance | – |
| Cl.[2H]C([2H])([2H])N[C@H](C)C(=O)c1ccc2c(c1)OC([2H])([2H])O2 [(R)-Methylone-d5 hydrochloride, (R)-1-(benzo[d][1,3]dioxol-5-yl-2,2-d2)-2-((methyl-d3)amino)propan-1-one HCl] | most significant difference in half-life and intrinsic clearance | 6.27 |

Reference: US12234216B2, “Isotopologues salts, crystalline forms, stereoisomers, of methylone and ethylone and methods of use thereof” (Terran Biosciences Inc., priority 2021, dated 2025)
